ChEMBL document CHEMBL3044795, “Synthesis and biological evaluation of novel benzoquinones as potential antimicrobial agents” (2013)
In brackets after ≈: the same amount, converted by molar mass.

How the values were obtained:
Assay type in all cases: functional
[1] = system: Pseudomonas aeruginosa; experiment: Antibacterial activity against Pseudomonas aeruginosa ATCC 10145 assessed as growth inhibition after 24 hr by two-fold serial dilution method; conditions: ATCC 10145, 24 h
[2] = system: Bacillus subtilis; experiment: Antibacterial activity against Bacillus subtilis ATCC 6633 assessed as diamater of growth inhibition zone after 24 hr by agar cup diffusion method
[3] = system: Staphylococcus aureus; experiment: Antibacterial activity against Staphylococcus aureus DSM 1104 assessed as growth inhibition after 24 hr; conditions: DSM 1104, 24 h
[4] = system: Pseudomonas aeruginosa; experiment: Antibacterial activity against Pseudomonas aeruginosa ATCC 10145 assessed as growth inhibition after 24 hr; conditions: ATCC 10145, 24 h
[5] = system: Staphylococcus aureus; experiment: Antibacterial activity against Staphylococcus aureus DSM 1104 assessed as diamater of growth inhibition zone after 24 hr by agar cup diffusion method
[6] = system: Escherichia coli; experiment: Antibacterial activity against Escherichia coli ATCC 11775 assessed as diamater of growth inhibition zone after 24 hr by agar cup diffusion method
[7] = system: Bacillus subtilis; experiment: Antibacterial activity against Bacillus subtilis ATCC 6633 assessed as growth inhibition after 24 hr; conditions: ATCC 6633, 24 h
[8] = system: Candida albicans; experiment: Antifungal activity against Candida albicans DSM 70014 assessed as growth inhibition after 48 hr; conditions: DSM 70014, 48 h
[9] = system: Escherichia coli; experiment: Antibacterial activity against Escherichia coli ATCC 11775 assessed as growth inhibition after 24 hr by two-fold serial dilution method; conditions: ATCC 11775, 24 h
[10] = system: Pseudomonas aeruginosa; experiment: Antibacterial activity against Pseudomonas aeruginosa ATCC 10145 assessed as diamater of growth inhibition zone after 24 hr by agar cup diffusion method
[11] = system: Escherichia coli; experiment: Antibacterial activity against Escherichia coli ATCC 11775 assessed as growth inhibition after 24 hr; conditions: ATCC 11775, 24 h
[12] = system: Staphylococcus aureus; experiment: Antibacterial activity against Staphylococcus aureus DSM 1104 assessed as growth inhibition after 24 hr by two fold serial dilution method; conditions: DSM 1104, 24 h
[13] = system: Bacillus subtilis; experiment: Antibacterial activity against Bacillus subtilis ATCC 6633 assessed as growth inhibition after 24 hr by two fold serial dilution method; conditions: ATCC 6633, 24 h
[14] = system: Candida albicans; experiment: Antifungal activity against Candida albicans DSM 70014 assessed as diamater of growth inhibition zone after 48 hr by agar cup diffusion method
[15] = system: Candida albicans; experiment: Antifungal activity against Candida albicans DSM 70014 assessed as growth inhibition after 48 hr by two-fold serial dilution method; conditions: DSM 70014, 48 h

| MIC [1] [µg/mL] | MIC [9] [µg/mL] | MIC [12] [µg/mL] | MIC [13] [µg/mL] | MIC [15] [µg/mL] | Structure (SMILES) | diameter of the inhibition zone (DIZ) [2] [mm] | MBC [3] [µg/mL] | MBC [4] [µg/mL] | diameter of the inhibition zone (DIZ) [5] [mm] | diameter of the inhibition zone (DIZ) [6] [mm] | MBC [7] [µg/mL] | MFC [8] [µg/mL] | diameter of the inhibition zone (DIZ) [10] [mm] | MBC [11] [µg/mL] | diameter of the inhibition zone (DIZ) [14] [mm] |
| --- | --- | --- | --- | --- | --- | --- | --- | --- | --- | --- | --- | --- | --- | --- | --- |
| 100 (≈ 232 µM) | 100 (≈ 232 µM) | 25 (≈ 57.9 µM) | 50 (≈ 116 µM) | 25 (≈ 57.9 µM) | COc1cc(/C=N/N=c2\scc(C3=CC(=O)C=CC3=O)n2-c2ccccc2)ccc1O | 15 | 50 (≈ 116 µM) | 100 (≈ 232 µM) | 15 | 15 | 100 (≈ 232 µM) | 50 (≈ 116 µM) | 14 | 100 (≈ 232 µM) | 12 |
| 100 (≈ 224 µM) | 50 (≈ 112 µM) | 25 (≈ 56.1 µM) | 100 (≈ 224 µM) | 50 (≈ 112 µM) | COc1cc(/C=N/N=c2\scc(C3=CC(=O)C=CC3=O)n2-c2ccc(C)cc2)ccc1O | 15 | 50 (≈ 112 µM) | 100 (≈ 224 µM) | 14 | 15 | 100 (≈ 224 µM) | 50 (≈ 112 µM) | 15 | 50 (≈ 112 µM) | 15 |
| 50 (≈ 120 µM) | 50 (≈ 120 µM) | 50 (≈ 120 µM) | 50 (≈ 120 µM) | 50 (≈ 120 µM) | COc1ccc(/C=N/N=c2\scc(-c3cc(O)ccc3O)n2-c2ccccc2)cc1 | 15 | 50 (≈ 120 µM) | 50 (≈ 120 µM) | 14 | 14 | 50 (≈ 120 µM) | 50 (≈ 120 µM) | 14 | 50 (≈ 120 µM) | 12 |
| 50 (≈ 112 µM) | 50 (≈ 112 µM) | 100 (≈ 224 µM) | 50 (≈ 112 µM) | 50 (≈ 112 µM) | COc1ccc(/C=N/N=c2\scc(C3=CC(=O)C=CC3=O)n2-c2ccc(C)cc2)cc1O | 14 | 100 (≈ 224 µM) | 50 (≈ 112 µM) | 15 | 14 | 50 (≈ 112 µM) | 100 (≈ 224 µM) | 14 | 50 (≈ 112 µM) | 15 |
| 50 (≈ 115 µM) | 12.5 (≈ 28.8 µM) | 12.5 (≈ 28.8 µM) | 50 (≈ 115 µM) | 12.5 (≈ 28.8 µM) | COc1cc(/C=N/N=c2\scc(-c3cc(O)ccc3O)n2-c2ccccc2)ccc1O | 16 | 25 (≈ 57.7 µM) | 50 (≈ 115 µM) | 15 | 14 | 50 (≈ 115 µM) | 25 (≈ 57.7 µM) | 15 | 25 (≈ 57.7 µM) | 15 |
| 100 (≈ 232 µM) | 50 (≈ 116 µM) | 50 (≈ 116 µM) | 100 (≈ 232 µM) | 100 (≈ 232 µM) | COc1ccc(/C=N/N=c2\scc(C3=CC(=O)C=CC3=O)n2-c2ccccc2)cc1O | 15 | 50 (≈ 116 µM) | 100 (≈ 232 µM) | 14 | 14 | 100 (≈ 232 µM) | 100 (≈ 232 µM) | 16 | 50 (≈ 116 µM) | 14 |
| 50 (≈ 116 µM) | 12.5 (≈ 29 µM) | 50 (≈ 116 µM) | 50 (≈ 116 µM) | 100 (≈ 232 µM) | COc1ccc(/C=N/N=c2\scc(-c3cc(O)ccc3O)n2-c2ccc(C)cc2)cc1 | 13 | 50 (≈ 116 µM) | 50 (≈ 116 µM) | 15 | 15 | 50 (≈ 116 µM) | 100 (≈ 232 µM) | 16 | 25 (≈ 57.9 µM) | 15 |
